Measured values taken from patent US20090215758A1, “Use of 2,5-Disubstituted Thiazol-4-One Derivatives in Drugs” (Gruenenthal GmbH, priority 2005, published 2009).
pEC50: −log10 of the molar value. Counter-ions that a name gives are not always drawn.

Experiments:
[1] = molecular target: T1, vanilloid receptor 1 (VR1/TRPV1) of the rat species (Rattus norvegicus, UniProt O35433); assay: Functional study on vanilloid receptor 1, FLIPR Ca2+ assay in rat dorsal root ganglia cells; format: cell-based; conditions: for inhibition at 10 µM / activation at 10 µM / VR1 (rat) (% inhibition compared to 10 μM CP) / VR1 (rat) (% stimulation compared to 10 μM CP): test compound 10 μM; for inhibition at 10 µM / VR1 (rat) (% inhibition compared to 10 μM CP): 5 min incubation, then 100 nM capsaicin, relative to maximum inhibition with 10 μM capsaicin; for inhibition at 10 µM: read-out: VR1 (rat) (% inhibition compared to 10 μM CP); for activation at 10 µM / VR1 (rat) (% stimulation compared to 10 μM CP): Ca2+ signal relative to 10 μM capsaicin (CP); for activation at 10 µM: read-out: VR1 (rat) (% stimulation compared to 10 μM CP); for pEC50: unit inferred
T1 construct: The spinal column is removed from beheaded rats; from tissue; host or cells: primary cells from rat dorsal root ganglia (DRGs)
T1 sequence (O35433 whole entry): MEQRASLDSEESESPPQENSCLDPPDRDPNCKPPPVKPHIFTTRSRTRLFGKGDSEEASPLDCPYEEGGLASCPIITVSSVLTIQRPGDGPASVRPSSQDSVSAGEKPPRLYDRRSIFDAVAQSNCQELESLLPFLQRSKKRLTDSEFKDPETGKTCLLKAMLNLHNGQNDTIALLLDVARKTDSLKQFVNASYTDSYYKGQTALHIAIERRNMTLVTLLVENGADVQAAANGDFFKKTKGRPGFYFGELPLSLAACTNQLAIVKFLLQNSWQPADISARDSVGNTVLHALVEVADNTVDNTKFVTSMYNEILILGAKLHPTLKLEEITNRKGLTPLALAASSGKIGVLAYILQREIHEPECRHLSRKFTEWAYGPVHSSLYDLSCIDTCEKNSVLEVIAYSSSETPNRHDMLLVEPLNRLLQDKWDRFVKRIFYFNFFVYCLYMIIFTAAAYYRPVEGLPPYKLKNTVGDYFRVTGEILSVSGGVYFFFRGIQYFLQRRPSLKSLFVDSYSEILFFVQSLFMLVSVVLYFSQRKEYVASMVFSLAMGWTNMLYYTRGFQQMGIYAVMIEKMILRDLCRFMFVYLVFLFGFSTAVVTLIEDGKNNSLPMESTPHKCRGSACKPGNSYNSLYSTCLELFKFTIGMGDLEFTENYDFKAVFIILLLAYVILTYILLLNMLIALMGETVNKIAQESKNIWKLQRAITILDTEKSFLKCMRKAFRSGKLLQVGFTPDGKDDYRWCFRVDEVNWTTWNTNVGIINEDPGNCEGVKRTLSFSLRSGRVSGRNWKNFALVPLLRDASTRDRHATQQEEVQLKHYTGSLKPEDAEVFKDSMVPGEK
Experimental: The agonistic or antagonistic action of the substances to be studied on the vanilloid receptor 1 (VR1/TRPV1) of the rat species can be determined with the following assay. In this assay, the Ca^2+ current through the receptor channel is quantified with the aid of a Ca^2+-sensitive dye (Fluo-4 type, Molecular Probes Europe BV, Leiden the Netherlands) in a fluorescent imaging plate reader (FLIPR, Molecular Devices, Sunnyvale, USA).
Complete medium: 50 ml HAMS F12 Nutrient Mixture (Gibco Invitrogen GmbH, Karlsruhe, Germany) with 10% by volume of FCS (fetal calf serum, Gibco Invitrogen GmbH, Karlsruhe, Germany, heat-inactivated);
2 mM L-glutamine (Sigma, Munich, Germany);
1% by weight of AA solution (antibiotic/antimycotic solution, PAA, Pasching, Austria) and 25 ng/ml of NGF medium (2.5 S, Gibco Invitrogen GmbH, Karlsruhe, Germany)
Cell culture plate: poly-D-lysine-coated, black 96-hole plates with a clear bottom (96 well black/clear plate, BD Biosciences, Heidelberg, Germany) are additionally coated with laminin (Gibco Invitrogen GmbH, Karlsruhe, Germany) by diluting laminin to a concentration of 100 μg/ml with PBS (Ca—Mg-free PBS, Gibco Invitrogen GmbH, Karlsruhe, Germany). Aliquots having a concentration of 100 μg/ml of laminin are withdrawn and stored at −20° C. The aliquots are diluted with PBS in a ratio of 1:10 to 10 μg/ml of laminin and in each case 50 μl of the solution are pipetted into a well of the cell culture plate. The cell culture plates are incubated at 37° C. for at least two hours, the supernatant solution is removed by suction and the wells are each washed twice with PBS. The coated cell culture plates are stored with supernatant PBS which is not removed until directly before the application of the cells.
The spinal column is removed from beheaded rats and placed directly into cold HBSS buffer (Hank's buffered saline solution, Gibco Invitrogen GmbH, Karlsruhe, Germany), i.e. placed in an ice bath, which has been admixed with 1% by volume of an AA solution (antibiotic/antimycotic solution, PAA, Pasching, Austria). The spinal column is severed longitudinally and removed from the spinal canal together with fasciae. Subsequently, the dorsal root ganglia (DRGs) are removed and in turn stored in cold HBSS buffer admixed with 1% by volume of an AA solution. The DRGs freed completely of blood residues and spinal nerves are in each case transferred to 500 μl of cold type 2 collagenase (PAA, Pasching, Austria) and incubated at 37° C. for 35 minutes. […] After complete incubation, the enzyme solution is cautiously pipetted off and the remaining DRGs are each suspended with 500 μl of complete medium.
The DRGs are each suspended repeatedly, drawn through cannulas No. 1, No. 12 and No. 16 by means of a syringe and transferred to 50 ml Falcon tubes which are made up to 15 ml with complete medium. The contents of each Falcon tube are in each case filtered through a 70 μm Falcon filter insert and centrifuged at 1200 revolutions and room temperature for 10 minutes. The resulting pellet is in each case taken up in 250 μl of complete medium and the cell count is determined.
The number of cells in the suspension is adjusted to 3 times 10^5 per ml and in each case 150 μl of this suspension are added to one well of the cell culture plates coated as described above.
Subsequently, the cells are laden with 2 μM Fluo-4 and 0.01% by volume of Pluronic F127 (Molecular Probes Europe BV, Leiden, the Netherlands) in HBSS buffer (Hank's buffered saline solution, Gibco Invitrogen GmbH, Karlsruhe, Germany) at 37° C. for 30 min, washed 3× with HBSS buffer and, after a further incubation of 15 minutes, used in the FLIPR assay at room temperature for Ca^2+ measurement. The Ca^2+-dependent fluorescence is measured before and after addition of substances (λex=488 nm, λem=540 nm). The quantification is effected by the measurement of the highest fluorescence intensity (FC, fluorescence counts) over the time.

VR1 (human) = molecular target: T2, VR1 (human) (Homo sapiens, UniProt Q8NER1); assay: Functional study on vanilloid receptor (VR1), FLIPR Ca2+ assay in CHO K1 cells stably transfected with the VR1 gene; format: cell-based; conditions: for inhibition at 10 µM / activation at 10 µM: CHO-K1, test compound 10 μM; for inhibition at 10 µM / VR1 (human) (% inhibition compared to 10 μM CP): 5 min incubation, then 100 nM capsaicin, compared to 10 μM CP; for activation at 10 µM / VR1 (human) (% stimulation compared to 10 μM CP): Ca2+ signal relative to 10 μM capsaicin (CP); for activation at 10 µM: read-out: VR1 (human) (% stimulation compared to 10 μM CP); for pEC50: unit inferred; for VR1 (human) (% inhibition compared to 10 μM CP) / VR1 (human) (% stimulation compared to 10 μM CP): test compound 10 μM
T2 construct: expressed in transfected cells; host or cells: CHO K1 cells (ECACC), stably transfected
T2 sequence (Q8NER1 whole entry): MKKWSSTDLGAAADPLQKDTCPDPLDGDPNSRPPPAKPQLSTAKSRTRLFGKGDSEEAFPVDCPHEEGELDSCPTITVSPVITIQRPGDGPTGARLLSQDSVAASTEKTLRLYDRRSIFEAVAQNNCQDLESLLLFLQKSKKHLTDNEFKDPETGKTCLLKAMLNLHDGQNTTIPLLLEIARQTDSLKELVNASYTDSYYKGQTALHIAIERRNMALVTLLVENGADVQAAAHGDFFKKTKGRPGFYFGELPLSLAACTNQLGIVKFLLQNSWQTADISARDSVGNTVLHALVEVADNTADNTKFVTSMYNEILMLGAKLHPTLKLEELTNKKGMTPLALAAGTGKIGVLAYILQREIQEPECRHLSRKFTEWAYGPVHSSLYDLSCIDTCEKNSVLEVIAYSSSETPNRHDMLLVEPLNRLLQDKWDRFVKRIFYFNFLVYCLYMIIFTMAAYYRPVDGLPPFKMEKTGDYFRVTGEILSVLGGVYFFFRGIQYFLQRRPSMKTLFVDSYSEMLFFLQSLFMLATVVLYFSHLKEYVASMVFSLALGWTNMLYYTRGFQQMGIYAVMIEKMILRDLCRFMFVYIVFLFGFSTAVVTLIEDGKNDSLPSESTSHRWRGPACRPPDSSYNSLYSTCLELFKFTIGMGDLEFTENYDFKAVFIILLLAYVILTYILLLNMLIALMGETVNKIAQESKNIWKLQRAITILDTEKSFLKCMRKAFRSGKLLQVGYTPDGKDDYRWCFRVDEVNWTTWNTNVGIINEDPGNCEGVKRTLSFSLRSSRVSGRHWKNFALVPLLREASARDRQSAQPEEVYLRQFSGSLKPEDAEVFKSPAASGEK
From the text: The agonistic or antagonistic action of the substances to be tested on vanilloid receptor (VR1) can also be determined with the assay which follows. In this assay, the Ca^2+ current through the channel is quantified with the aid of a Ca^2+-sensitive dye (Fluo-4 type, Molecular Probes, Europe BV, Leiden, the Netherlands) in a fluorescent imaging plate reader (FLIPR, Molecular Devices, Sunnyvale, USA).
Chinese hamster ovary cells (CHO K1 cells, European Collection of Cell Cultures (ECACC) Great Britain) are transfected stably with the VR1 gene. For functional studies, these cells are plated out onto poly-D-lysine-coated black 96-well plates with a clear bottom (BD Biosciences, Heidelberg, Germany) in a density of 25 000 cells/well. The cells are incubated overnight at 37° C. and 5% CO2 in a culture medium (Ham's Nutrient Mixture F12, 10% by volume of FCS (fetal calf serum), 18 μg/ml of L-proline). The next day, the cells are incubated with Fluo-4 (Fluo-4 2 μM, Pluronic F127 0.01% by volume, Molecular Probes in HBSS (Hank's buffered saline solution), Gibco Invitrogen GmbH, Karlsruhe, Germany) at 37° C. for 30 minutes. Subsequently, the plates are washed 3 times with HBSS buffer and, after a further incubation of 15 minutes at room temperature, used for Ca^2+ measurement in FLIPR. The Ca^2+-dependent fluorescence is measured before and after addition of the substances to be studied (wavelength λex=488 nm, λem=540 nm). The quantification is effected by measuring the highest fluorescence intensity (FC, fluorescence counts) over the time.
The FLIPR protocol consists of 2 substance additions. First, the substances to be tested (10 μM) are pipetted onto the cells and the Ca current is compared with the control (capsaicin 10 μM) (% activation based on the Ca^2+ signal after addition of 10 μM capsaicin). After incubation for 5 minutes, 100 nM capsaicin is applied and the current of Ca^2+ is likewise determined.

SMILES | inhibition at 10 µM [1] | activation at 10 µM [1] | pEC50 [1] | inhibition at 10 µM (VR1 (human)) | activation at 10 µM (VR1 (human)) | pEC50 (VR1 (human)) | VR1 (rat) (% inhibition compared to 10 μM CP) [1] | VR1 (rat) (% stimulation compared to 10 μM CP) [1] | VR1 (human) (% inhibition compared to 10 μM CP) (VR1 (human)) | VR1 (human) (% stimulation compared to 10 μM CP) (VR1 (human))
O=C1N=C(N2CCSCC2)SC1=Cc1cccc(C(F)(F)F)c1 [Example 195, 2-thiomorpholin-4-yl-5-(3-trifluoromethylbenzylidene)thiazol-4-one hydrobromide] | 96.1% | 94.3% | 5.66 | 90.3% | 80.3% | 5.23 |  |  |  | 
O=C1N=C(N2CCOCC2)SC1=Cc1ccc(OCc2ccccc2)cc1 [Example 21, 5-(4-benzyloxybenzylidene)-2-morpholin-4-ylthiazol-4-one] | 50.1% | 55.8% | 5.18 | 28.5% | 36.5% | 5.07 |  |  |  | 
O=C1N=C(N2CCOCC2)SC1=CC=Cc1ccccc1 [Example 189, 2-morpholin-4-yl-5-(3-phenylallylidene)thiazol-4-one hydrobromide] | 5.61% | 6.64% | < 4.60 | 8.14% | 11.2% | < 4.30 |  |  |  | 
O=C1N=C(N2CCOCC2)SC1=Cc1ccccn1 [Example 210, 2-morpholin-4-yl-5-pyridin-2-ylmethylenethiazol-4-one] | 23% | 2.22% |  | 3.03% | 1.83% |  |  |  |  | 
COc1cc(C=C2SC(N3CCSCC3)=NC2=O)ccc1O [Example 39, 5-(4-hydroxy-3-methoxybenzylidene)-2-thiomorpholin-4-ylthiazol-4-one] | 51% | 31.2% |  | 23.7% | 18.9% |  |  |  |  | 
O=C1N=C(N2CCOCC2)SC1=Cc1ccc(Oc2ccccc2)cc1 [Example 17, 2-morpholin-4-yl-5-(4-phenoxybenzylidene)thiazol-4-one] | 91.1% | 120% | 5.20 | 19.6% | 46% | 4.75 |  |  |  | 
O=C1N=C(N2CCOCC2)SC1=Cc1cccc(C(F)(F)F)c1 [Example 205, 2-morpholin-4-yl-5-(3-trifluoromethylbenzylidene)thiazol-4-one hydrobromide] | 96.4% | 79.6% |  | 103% | 68.2% |  |  |  |  | 

Other lines, results leading:

inhibition at 10 µM [1] | activation at 10 µM [1] | pEC50 [1] | inhibition at 10 µM (VR1 (human)) | activation at 10 µM (VR1 (human)) | pEC50 (VR1 (human)) | VR1 (rat) (% inhibition compared to 10 μM CP) [1] | VR1 (rat) (% stimulation compared to 10 μM CP) [1] | VR1 (human) (% inhibition compared to 10 μM CP) (VR1 (human)) | VR1 (human) (% stimulation compared to 10 μM CP) (VR1 (human)) | SMILES
9.3% | 102% |  | 57.7% | 70.5% |  |  |  |  |  | CCN(CC)c1ccc(C=C2SC(N3CCOCC3)=NC2=O)cc1 [Example 223, 5-(4-diethylaminobenzylidene)-2-morpholin-4-ylthiazol-4-one]
 |  |  |  |  |  | 87.60% | 79.68% | 84.29% | 85.02% | CC(C)c1ccc(C=C2SC(N3CCOCC3)=NC2=O)cc1 [Example 135, 5-(4-isopropylbenzylidene)-2-morpholin-4-ylthiazol-4-one]
17.6% | -0.17% | < 4.60 | 8.04% | 15.8% | < 4.30 |  |  |  |  | O=C1N=C(N2CCCCC2)SC1=CC=Cc1ccccc1 [Example 191, 5-(3-phenylallylidene)-2-piperidin-1-ylthiazol-4-one hydrobromide]
97.5% | 44.7% |  |  | 14.5% |  |  |  | 35.32% |  | Br.Cc1ccc(C=C2SC(N3CCOCC3)=NC2=O)cc1 [Example 176, 5-(4-methylbenzylidene)-2-morpholin-4-ylthiazol-4-one hydrobromide]
 |  |  |  |  |  | 98.64% | 102.46% | 79.67% | 41.92% | CC(C)(C)c1ccc(C=C2SC(N3CCOCC3)=NC2=O)cc1 [Example 222, 5-(4-tert-butylbenzylidene)-2-morpholin-4-ylthiazol-4-one]
96.2% | 80.4% |  | 43.8% | 29.2% |  |  |  |  |  | O=C1N=C(N2CCOCC2)SC1=Cc1ccc(Br)cc1 [Example 232, 5-(4-bromobenzylidene)-2-morpholin-4-ylthiazol-4-one]
82.1% | 108% | 6.02 | 89.4% | 107% | 5.29 |  |  |  |  | Cc1ccc(C=C2SC(N3CCSCC3)=NC2=O)cc1 [Example 14, 5-(4-methylbenzylidene)-2-thiomorpholin-4-ylthiazol-4-one hydrobromide]
4.47% | 2.14% |  | 49.8% | 3.64% |  |  |  |  |  | Cc1ccc(C=C2SC(N3CCCC3)=NC2=O)cc1 [Example 215, 5-(4-methylbenzylidene)-2-pyrrolidin-1-ylthiazol-4-one]
97% | 0.92% |  | 73.3% | 0.06% |  |  |  |  |  | Cc1ccc(C=C2SC(N3CCN(c4ncccc4Cl)CC3)=NC2=O)cc1 [Example 30, 2-[4-(3-chloropyridin-2-yl)piperazin-1-yl]-5-(4-methylbenzylidene)thiazol-4-one]
